Results from US20260137696A1, “Compositions Comprising an Inhibitor of Galectin-3” (University of Liverpool, priority 2023, published 2026).

Assays:
[1] = system: SW620^Gal3+ cells; assay: Cancer cell adhesion to HUVECs; type: cell-based, human; settings: 10 μM; Galectin-3-expressing SW620^Gal3+ cells
Description: Adhesion of human colon cancer SW620 cells to human umbilical vein endothelial cells (HUVECs) was assessed in the absence or presence of the compounds of Formula I and Formula II (10 μM). […] (N=2, n=2);
Adhesion of human colon cancer SW620 cells to human umbilical vein endothelial cells (HUVECs) was assessed in the absence or presence of the compounds of Formula I and Formula II (10 μM).
HUVECs (1.5×10^5 cells/ml) were seeded into 96-well plates in complete EBM-2 medium and incubated at 37° C. 5% CO2 for 48-72 hours until a monolayer was formed. Monolayer integrity was confirmed by measuring trans-endothelial electrical resistance (TEER) using a Volt Ohm Meter and only monolayers with TEER reading over 800 Ω/cm^2 were used for the assay. ZsGreen- and luciferase-transfected SW620Gal3+, SW620Gal3− or ACA19+ cells (5×10^5 cells/ml) was then added to the HUVECs without or with 10 μM of the compound of Formula I or the compound of Formula II for 30-35 min at 37° C. The cells were washed twice with PBS before lysed with PLB. The cell lysates were transferred into new wells of white-walled 96-well plates and Luciferase Assay Reagent was added. The wells were mixed well and luminescence was measured using Infinite F200 Microplate reader. The experiment was performed three times, each time in triplicates.

[2] = system: SW620^Gal3− cells; assay: Tumour growth and metastasis in chick chorioallantoic membrane (CAM) model; type: in vivo, chicken embryos; settings: 24 μM; Galectin-3-suppressed SW620^Gal3−
Description: (§1) Effect of the compound of Formula I on tumour formation, growth and metastasis of SW620Gal3+ and SW620Gal3− cells was assessed in the chick chorioallantoic membrane (CAM) model. Galectin-3-expressing SW620^Gal3+ and Galectin-3-suppressed SW620^Gal3− cells were transfected with pHIV-Luc-ZsGreen vector and engrafted to the CAM on embryonic day 7. The compound of Formula I (24 μM) was injected into the allantoic cavity on the following day and the tumour formation and growth was analysed by fluorescence microscopy (FIG. 10A) and IVIS imaging (FIGS. 10B-FIG. 10D) on embryonic day 14. Seventy percent eggs grafted with Galectin-3-expressing SW620^Gal3+ cells formed various sized tumours in the absence of Formula I while the number of eggs formed in the Formula I treated group was reduced to 30%.
as §1, with “SW620Gal3−” for “SW620Gal3− cells”, “SW620^Ga13−” for “SW620^Gal3−”
(§2) Fertilised white leghorn chicken eggs were obtained from Lees Lane Poultry (Wirral, UK). The eggs were windowed on embryonic Day 3 with 4 ml albumin removed. The eggs were incubated at 37° C. in 35-40% humidity until embryonic day 7. ZsGreen- and luciferase-expressing SW620Gal3+ and SW620Gal3− cells (2.5×10^6) were then embedded on the chorioallantoic membrane (CAM). On embryonic Days 8 and 11, the inhibitors (24 μM) or control DMSO/PBS were injected into the allantoic cavity. The eggs were incubated until embryonic Day 14 The eggs were imaged using a Microscope as well as by IVIS. The embryos were then immediately decapitated. Organs were examined under fluorescence microscope for presence of ZsGreen-labelled tumour cells. Ethical approval for the experiments using chick embryos up to embryonic Day 14 was obtained from the Liverpool Animal Welfare and Ethical Review Body.

[3] = system: SW620^Gal3+ cells; assay: as above; type: in vivo, chicken embryos
Description: as §1
as §1, with “SW620Gal3−” for “SW620Gal3− cells”, “SW620^Ga13−” for “SW620^Gal3−”
as §2

[4] = system: SW620 cells; assay: Tumour growth in mice (subcutaneous graft); type: in vivo, Balb/c nude mice; settings: 5 mg/kg subcutaneously, 3 times a week for 4 weeks
Description: The compound of Formula I effect on tumour growth was assessed in Balb/c nude mice. Luciferase-transfected human colon cancer SW620 cells were grafted subcutaneously to mice and the compound of Formula I (5 mg/kg) was administrated subcutaneously, 3 times a week for 4 weeks. Tumour growths were monitored by IVIS imaging (FIG. 11A) and also measured by clipers.
The compound of Formula I effect on tumour growth was assessed in Balb/c nude mice. Luciferase-transfected human colon cancer SW620 cells were grafted subcutaneously to mice and the compound of Formula I (5 mg/kg) was administrated subcutaneously, 3 times a week for 4 weeks. Tumour growths were monitored by IVIS imaging and also measured by clipers.
Female Balb/c nude mice aged 6-7 weeks were purchased from Charles River Laboratories (Margate, UK) and maintained in specific pathogen-free conditions with a 12:12 hour light:dark cycle. All animal studies were conducted with UK Home Office and local ethics committee approval.
Sixteen 6˜7 weeks old mice were randomly divided into two equal A and B groups (8 mice/group). The animals were injected s.c. with 2×10^6 ZsGreen- and luciferase-expressing SW620Gal3+ cells. […] Tumour size were measured with callipers every two days. […]

| SMILES | adhesion to HUVEC [1] | tumour formation or growth [2] | number of eggs that formed tumours ([3]; 24 μM into allantoic cavity, embryonic day 14, 70% without Formula I) [%] | reduction of luminescence intensity in the tumours ([3]; 24 μM, IVIS imaging, embryonic day 14, vs group without Formula I) [%] | tumours showing metastasis to other organs ([3]; 24 μM, 25% in the absence of Formula I) | inhibition of tumour growth [4] [%] |
| --- | --- | --- | --- | --- | --- | --- |
| C[C@H]1COc2c(N3CCN(C)CC3)c(F)cc3c(=O)c(C(=O)NNc4cccc(N)c4)cn1c23 [Formula II] | significantly inhibits |  |  |  |  |  |
| C[C@H]1COc2c(N3CCN(C)CC3)c(F)cc3c(=O)c(C(=O)NNc4ccc(N)cc4)cn1c23 [Formula I] | significantly inhibits | no effect | 30 | 66 | none | 51 |
